Tests used:
[1] = tested on: HIV-1 E138K mutant strain; test: microbe, parasite or virus in culture; type: cell-based; settings: for SI E138K: CC50/EC50; for EC50: Human immunodeficiency virus 1, MT4, read-out: EC50 E138K; for RF E138K: ratio of EC50 (resistant viral strain)/EC50 (wild-type viral strain)
[2] = target: WT HIV-1 RT (Human immunodeficiency virus type 1 group M subtype B, UniProt P03366); test: Recombinant HIV-1 RT inhibitory assay; type: biochemical
[3] = tested on: HIV-1 F227L + V106A double-mutant strain; test: microbe, parasite or virus in culture; type: cell-based; settings: for SI F227L + V106A: CC50/EC50; for EC50: Human immunodeficiency virus 1, MT4, read-out: EC50 F227L + V106A; for RF F227L + V106A: ratio of EC50 (resistant viral strain)/EC50 (wild-type viral strain)
[4] = Cytotoxicity in mock-infected MT-4 cell cultures, MTT method; settings: human, mock-infected MT-4 cells
[5] = tested on: HIV-1 L100I mutant strain; test: microbe, parasite or virus in culture; type: cell-based; settings: for SI L100I: CC50/EC50; for EC50: Human immunodeficiency virus 1, MT4, read-out: EC50 L100I; for RF L100I: ratio of EC50 (resistant viral strain)/EC50 (wild-type viral strain)
[6] = tested on: HIV-1 Y181C mutant strain; test: microbe, parasite or virus in culture; type: cell-based; settings: for SI Y181C: CC50/EC50; for EC50: Human immunodeficiency virus 1, MT4, read-out: EC50 Y181C; for RF Y181C: ratio of EC50 (resistant viral strain)/EC50 (wild-type viral strain)
[7] = tested on: WT HIV-1 (IIIB); test: microbe, parasite or virus in culture; type: cell-based; settings: for EC50: Human immunodeficiency virus 1, IIIB, MT4, read-out: EC50 IIIB; for SI IIIB: ratio of CC50/EC50
[8] = tested on: HIV-1 K103N mutant strain; test: microbe, parasite or virus in culture; type: cell-based; settings: for SI K103N: CC50/EC50; for EC50: Human immunodeficiency virus 1, MT4, read-out: EC50 K103N; for RF K103N: ratio of EC50 (resistant viral strain)/EC50 (wild-type viral strain)
[9] = tested on: HIV-1 RES056 (K103N + Y181C) double-mutant strain; test: microbe, parasite or virus in culture; type: cell-based; settings: for SI RES056: CC50/EC50; for EC50: Human immunodeficiency virus 1, MT4, read-out: EC50 RES056; for RF RES056: ratio of EC50 (resistant viral strain)/EC50 (wild-type viral strain)
[10] = tested on: HIV-1 Y188L mutant strain; test: microbe, parasite or virus in culture; type: cell-based; settings: for SI Y188L: CC50/EC50; for EC50: Human immunodeficiency virus 1, MT4, read-out: EC50 Y188L; for RF Y188L: ratio of EC50 (resistant viral strain)/EC50 (wild-type viral strain)
[11] = tested on: HIV-2 strain (ROD); test: Anti-HIV-2; type: cell-based; settings: for EC50: Human immunodeficiency virus 2, MT4, read-out: EC50 ROD; for SI ROD: ratio of CC50/EC50

SMILES | SI E138K [1] | EC50 [1] [nM] | RF E138K [1] | IC50 [2] [nM] | SI F227L + V106A [3] | EC50 [3] [nM] | RF F227L + V106A [3] | CC50 at 5 days [4] [µM] | SI L100I [5] | EC50 [5] [nM] | RF L100I [5] | SI Y181C [6] | EC50 [6] [nM] | RF Y181C [6] | EC50 [7] [nM] | SI IIIB [7] | SI K103N [8] | EC50 [8] [nM] | RF K103N [8] | SI RES056 [9] | also measured
Cc1cc(-c2ccco2)cc(C)c1Oc1nc(NC2CCN(Cc3ccc(S(N)(=O)=O)cc3)CC2)nc2ccsc12 [Compound 11, 4-((4-((4-(4-(Furan-2-yl)-2,6-dimethylphenoxy)thieno[3,2-d]pyrimidin-2-yl)amino)piperidin-1-yl)methyl)benzenesulfonamide] | 271 | 49.9 ± 0.35 | 2.8 | 243 ± 37 | 158 | 85.7 ± 9.71 | 4.8 | 13.5 ± 3.94 | 151 | 89.3 ± 23 | 5.0 | 213 | 63.5 ± 8.75 | 3.6 | 17.7 ± 4.83 | 762 | 651 | 20.7 ± 2.75 | 1.2 | 24 | EC50 [9]: 565 ± 22.5 nM; RF RES056 [9]: 31.9; SI Y188L [10]: 253; EC50 [10]: 53.4 ± 2.15 nM; RF Y188L [10]: 3.0; EC50 [11]: 4.15 ± 1.79 µM; SI ROD [11]: 3
Cc1cc(-c2ccccc2)cc(C)c1Oc1nc(NC2CCN(Cc3ccc(S(N)(=O)=O)cc3)CC2)nc2ccsc12 [Compound 19, 4-((4-((4-((3,5-Dimethyl-[1,1′-biphenyl]-4-yl)oxy)thieno[3,2-d]pyrimidin-2-yl)amino)piperidin-1-yl)methyl)benzenesulfonamide] | 200 | 107 ± 18.8 | 2.4 | 164 ± 5 | 106 | 200 ± 10.4 | 4.6 | 21.3 ± 1.26 | 62 | 344 ± 117 | 7.9 | 127 | 167 ± 24.5 | 3.8 | 43.8 ± 15.6 | 487 | 356 | 59.9 ± 6.01 | 1.4 | 12 | EC50 [9]: 1710 ± 473 nM; RF RES056 [9]: 39.1; SI Y188L [10]: 176; EC50 [10]: 121 ± 9.19 nM; RF Y188L [10]: 2.8; EC50 [11]: 6.13 ± 0.272 µM; SI ROD [11]: 3
Cc1cc(-c2cccs2)cc(C)c1Oc1nc(NC2CCN(Cc3ccc(S(N)(=O)=O)cc3)CC2)nc2ccsc12 [Compound 15, 4-((4-((4-(2,6-Dimethyl-4-(thiophen-2-yl)phenoxy)thieno[3,2-d]pyrimidin-2-yl)amino)piperidin-1-yl)methyl)benzenesulfonamide] | 173 | 124 ± 88.7 | 2.5 | 227 ± 46 | 380 | 56.7 ± 16.2 | 1.1 | 21.5 ± 0.89 | 220 | 97.9 ± 62.4 | 2.0 | 235 | 91.7 ± 18.2 | 1.9 | 49.5 ± 14.8 | 435 | 932 | 23.1 ± 2.56 | 0.5 | 22 | EC50 [9]: 999 ± 151 nM; RF RES056 [9]: 20.2; SI Y188L [10]: 203; EC50 [10]: 106 ± 43.6 nM; RF Y188L [10]: 2.1; EC50 [11]: 5.11 ± 1.71 µM; SI ROD [11]: 4
Cc1cc(-c2ccc(F)cc2)cc(C)c1Oc1nc(NC2CCN(Cc3ccc(C(N)=O)cc3)CC2)nc2ccsc12 [Compound 24, 4-((4-((4-((4′-Fluoro-3,5-dimethyl-[1,1′-biphenyl]-4-yl)oxy)thieno[3,2-d]pyrimidin-2-yl)amino)piperidin-1-yl)methyl)benzamide] | 195 | 34.8 ± 10.6 | 2.7 | 171 ± 10 | 120 | 56.6 ± 13.7 | 4.4 | 6.8 ± 3.13 | 111 | 61.1 ± 9.35 | 4.8 | 189 | 36.1 ± 1.21 | 2.8 | 12.8 ± 2.73 | 532 | 578 | 11.7 ± 1.09 | 0.9 | 12 | EC50 [9]: 575 ± 120 nM; RF RES056 [9]: 44.9; SI Y188L [10]: 132; EC50 [10]: 51.4 ± 9.6 nM; RF Y188L [10]: 4.0; EC50 [11]: ≥ 5.66 µM; SI ROD [11]: <1
Cc1cc(-c2ccoc2)cc(C)c1Oc1nc(NC2CCN(Cc3ccc(C(N)=O)cc3)CC2)nc2ccsc12 [Compound 14, 4-((4-((4-(4-(Furan-3-yl)-2,6-dimethylphenoxy)thieno[3,2-d]pyrimidin-2-yl)amino)piperidin-1-yl)methyl)benzamide] | 89 | 177 ± 2.93 | 3.1 | 249 ± 1 | 30 | 525 ± 21.1 | 9.1 | 15.8 ± 7.04 | 60 | 262 ± 75 | 4.6 | 88 | 180 ± 33.4 | 3.1 | 57.5 ± 12.7 | 275 | 212 | 74.8 ± 2.93 | 1.3 | 19 | EC50 [9]: 813 ± 177 nM; RF RES056 [9]: 14.1; SI Y188L [10]: 71; EC50 [10]: 222 ± 30.5 nM; RF Y188L [10]: 3.9; EC50 [11]: 3.18 ± 0.832 µM; SI ROD [11]: 5

From article PMC7280082 (Acta Pharmaceutica Sinica. B, 2019)
